In publication PMC8605905 (Oxidative Medicine and Cellular Longevity, 2021):
“Also recorded” adds a separate entry of the source.

Experiments:
Aβ-GFP SH-SY5Y cells = assay: High content analysis of neurite outgrowth in Aβ-GFP cells; format: cell-based, Human; settings: 5 μM
Description: On day 1, Aβ-GFP or ∆K280 tauRD-DsRed SH-SY5Y cells were plated into 24-well plates (6 × 10^4/well) followed by addition of retinoic acid. On day 2, cells were treated with coumarin-chalcone derivatives (5 or 10 μM) and with doxycycline (5 or 2 μg/ml) to induce the expression of Aβ-GFP or ∆K280 tauRD-DsRed. On day 8, 4% paraformaldehyde, 0.1% Triton X-100, and 3% BSA were used to fix, permeabilize, and block cells, respectively. Subsequently, the cells were stained with TUBB3 (neuronal class III β-tubulin) primary antibody (1 : 1000; Covance, Princeton, NJ, USA) at 4°C overnight. Goat anti-rabbit Alexa Fluor 555 secondary antibody (1 : 1000; Thermo Fisher Scientific) was then added, followed by a 3 h incubation at room temperature. Following staining nuclei with 4′,-6-diamidino-2-phenylindole (DAPI) (0.1 μg/ml; Sigma-Aldrich), the neurons were imaged by using the HCA system and analysed by using the Neurite Outgrowth Application Module (MetaXpress; Molecular Devices).
(§1) To monitor the cAMP-mediated signal transduction pathway, CRE-GFP 293 cells in 6-well plates (1 × 10^6/well) were pretreated with kinase inhibitor H-89 (LC Laboratories, Woburn, MA, USA), KN-62 (Cayman Chemical, Ann Arbor, MI, USA), U0126 (LC Laboratories), or wortmannin (LC Laboratories) (10 μM) for 4 h before forskolin or LM-021 (10 μM) addition for 5 h. GFP fluorescence/protein and total/phosphorylated PKA, CaMKII, ERK, PI3K, and CREB levels were examined. In addition, Aβ-GFP or ∆K280 tauRD-DsRed SH-SY5Y cells were treated with retinoic acid (10 μM) on day 1, followed by the addition of LM-021 (5 or 10 μM) and doxycycline (5 or 2 μg/ml) on day 2, as described. Kinase inhibitors (10 μM) were added on day 6. On day 8, the cells were collected for protein expression analysis of BDNF, BCL2 (BCL2 apoptosis regulator), and BAX (BCL2 associated X, apoptosis regulator), and total/phosphorylated PKA, CaMKII, ERK, PI3K, and CREB. Also, cells were stained with DAPI and assessed for neurite outgrowth as described above.

[1] = system: Acetylcholinesterase (AChE); assay: AChE activity in Aβ-GFP cells; format: cell-based; settings: 5 μM, vs untreated cells
Description: Aβ-GFP or ∆K280 tauRD-DsRed SH-SY5Y cells were seeded into 6-well plates (5 × 10^5/well) and treated with retinoic acid, coumarin-chalcone derivatives, and doxycycline as previously described. On day 8, cells were collected and lysates were prepared with six freeze/thaw cycles. The supernatant was collected by centrifugation, followed by measurement of the caspase 1 activity in 50 μg aliquots of cell extract using the ICE fluorometric assay kit (BioVision, Milpitas, CA, USA). Following incubation of the mixture at 37°C for 2 h, fluorescence was measured with excitation/emission wavelengths at 400/505 nm (FLx800 fluorescence microplate reader). In addition, the collected cells were lysed by sonication. Acetylcholinesterase (AChE) activity in the supernatant was determined in 10 μg aliquots of cell extracts using the AChE activity assay kit (Sigma-Aldrich) according to the manufacture's protocol. Finally, the absorbance at 412 nm was measured using a Multiskan GO spectrophotometer (Thermo Fisher Scientific).

[2] = system: ∆K280 tauRD-DsRed SH-SY5Y cells; assay: Western blot in ΔK280 tauRD-DsRed SH-SY5Y cells; format: cell-based, Human; settings: LM-021 10 μM, immunoblot
Description: as §1
Total proteins from CRE-GFP 293 and Aβ-GFP, ∆K280 tauRD-DsRed SH-SY5Y cells were extracted using lysis buffer (50 mM Tris-HCl (pH 8.0), 150 mM NaCl, 1 mM EDTA (pH 8.0), 1 mM EGTA (pH 8.0), 0.1% SDS, 0.5% sodium deoxycholate, 1% Triton X-100) containing phosphatase and protease inhibitor cocktails (Sigma-Aldrich). Protein concentrations were measured using a protein assay kit (Bio-Rad, Hercules, CA, USA), and 20 μg of proteins was separated with 10% SDS-PAGE and blotted onto polyvinylidene difluoride (PVDF) membranes (Sigma-Aldrich). After blocking, the membrane blot was incubated with primary antibody against GFP (1 : 500; Santa Cruz Biotechnology, Santa Cruz, CA, USA), PKA (1 : 1000; R&D Systems, Minneapolis, MN, USA), p-PKA (T197) (1 : 1000; Cell Signaling, Danvers, MA, USA), ERK (1 : 500; Cell Signaling), p-ERK (T202/Y204) (1 : 500; Cell Signaling), CaMKII (1 : 1000; Santa Cruz Biotechnology), p-CaMKII (T286) (1 : 1000; Cell Signaling), CREB (1 : 1000; Santa Cruz Biotechnology), p-CREB (S133) (1 : 1000; Millipore, Billerica, MA, USA), BDNF (1 : 500; Santa Cruz Biotechnology), BCL2 (1 : 500; BioVision), BAX (1 : 500; BioVision), GAPDH (glyceraldehyde-3-phosphate dehydrogenase, as a loading control) (1 : 1000; MDBio, Taipei, Taiwan), or β-tubulin (1 : 1000, Sigma-Aldrich, as a loading control). The immune complexes were visualized using horseradish peroxidase-conjugated goat anti-mouse or goat anti-rabbit IgG antibody (1 : 5000, GeneTex, Irvine, CA, USA) and a chemiluminescent substrate (Millipore).

## CN(C)c1ccc(/C=C/C(=O)c2c(O)c3ccccc3oc2=O)cc1 [LM-021, (E)-3-(3-(4-(dimethylamino)phenyl)acryloyl)-4-hydroxy-2H-chromen-2-one]
Aβ-GFP SH-SY5Y cells
  Neurite length, processes, and branches: successfully ameliorated; also recorded: salvaged
[1]
  AChE activity: reduced
[2]
  BAX protein level: decreased
  Level of PKA, CaMKII, or ERK: nor LM-021 treatment significantly altered
  p-CREB, CREB, pro-BDNF, m-BDNF, and BCL2 protein levels: significantly upregulated
  p-PKA, p-CaMKII, and p-ERK protein levels: increased
